Results on five compounds are retold here after PMC6095594, “Pre-clinical evaluation of quinoxaline-derived chalcones in tuberculosis” (PLoS ONE, 2018).

In brackets after ≈: the same amount, converted by molar mass. Where two headings read alike, the source gives them in different places.

One may read the MIC as the smallest concentration in the dilution series that meets the test's criterion for growth inhibition.

The subject of test [1] is M. tuberculosis drug-resistant clinical isolate CDCT-10. Type of test: cell-based, Mycobacterium tuberculosis.
The test system of test [2] is M. tuberculosis drug-resistant clinical isolate CDCT-16. In kind it is cell-based, Mycobacterium tuberculosis.
In test [3] the test system is M. tuberculosis drug-resistant clinical isolate CDCT-27. Type of test: cell-based, Mycobacterium tuberculosis.
Test [4] deals with M. tuberculosis pNIP::InhA(S94A). In kind it is cell-based, Mycobacterium tuberculosis.
The subject of test [5] is M. tuberculosis pNIP::KatG(S315T). In kind it is cell-based, Mycobacterium tuberculosis.
In test [6] the test system is M. tuberculosis drug-resistant clinical isolate CDCT-10. As to conditions: cited from earlier work.
Test [7] has as its system M. tuberculosis drug-resistant clinical isolate CDCT-16. As to conditions: cited from earlier work.
In test [8] the test system is M. tuberculosis drug-resistant clinical isolate CDCT-27. As to conditions: cited from earlier work.

`NNC(=O)c1ccncc1` [INH, isoniazid, reference compound]: the MIC in test [1] was 6.25 µg/mL (≈ 45.6 µM); in test [2] it was above 100 µg/mL; in test [3], 25 µg/mL (≈ 182 µM); in test [4] it was 12.5 µg/mL (≈ 91.1 µM); in test [5] it was above 100 µg/mL.

Take `COc1ccc(OC)c(C(=O)/C=C/c2ccc3nccnc3c2)c1` [N9]: the MIC in test [1] was determined as 1.56 µg/mL (≈ 4.87 µM); in test [2] it was 3.13 µg/mL (≈ 9.77 µM); in test [3], 3.13 µg/mL (≈ 9.77 µM); in test [4], 3.13 µg/mL (≈ 9.77 µM); in test [5], 1.56 µg/mL (≈ 4.87 µM).

`COc1cc(C(=O)/C=C/c2ccc3nccnc3c2)cc(OC)c1OC` [N15]: the MIC came out at 3.13 µg/mL (≈ 8.93 µM) in test [1]; 6.25 µg/mL (≈ 17.8 µM) in test [2]; 6.25 µg/mL (≈ 17.8 µM) in test [3]; 3.13 µg/mL (≈ 8.93 µM) in test [4]; 3.13 µg/mL (≈ 8.93 µM) in test [5].

On to `COc1cccc(C(=O)/C=C/c2ccc3nccnc3c2)c1` [N23], for which the MIC in test [1] was found to be 2.5 µg/mL (≈ 8.61 µM); in test [2] it was 5 µg/mL (≈ 17.2 µM); in test [3] it was 5 µg/mL (≈ 17.2 µM); in test [4], 2.5 µg/mL (≈ 8.61 µM); in test [5], 1.25 µg/mL (≈ 4.31 µM).

For the compound `CO[C@H]1/C=C/O[C@@]2(C)Oc3c(C)c(O)c4c(O)c(c(/C=N/N5CCN(C)CC5)c(O)c4c3C2=O)NC(=O)/C(C)=C\C=C\[C@H](C)[C@H](O)[C@@H](C)[C@@H](O)[C@@H](C)[C@H](OC(C)=O)[C@@H]1C` [RIF, Rifampicin], the MIC was above 100 µg/mL in test [6], above 100 µg/mL in test [7] and below 0.2 µg/mL in test [8].
